Entries after “also recorded” stand apart in the source; their conditions may differ.
Key:
NF-κB pathway = test: p50 nuclear translocation / NF-κB activation in DCs (ELISA of cytosolic and nuclear fractions); assay type: cell-based, human; conditions: DCs exposed to MMP-2 (5 μm/ml) or zymosan (10 μm/ml); p50 by ELISA
Experimental: (§1) A) DCs were exposed to MMP-2 […] or zymosan […], a known activator of NF-κB that acts via TLR2, for the indicated time. Cytosolic and nuclear fractions were isolated and p50 contents were measured by ELISA. […] C) OX40L over-expression on DCs induced by MMP-2 is inhibited by an inhibitor of NEMO, the NEMO binding domain (NBD) peptide, but not by the corresponding negative control, a NBD mutant.
(§2) PBMCs were purified from healthy-(HD) or cord blood- (CB) donors and plated at 40×10^6 cells/10 mL/dish in complete IMDM with 5% PHS. Cells were allowed to adhere for 2 h at 37° C. Non-adherent cells were removed. The monocyte-enriched fraction was supplemented with 100 UI/mL rhGMCSF and 300 UI/mL rhIL-4 (R&D Systems) on days 0, 2 and 4. Immature DCs were harvested on day 5 and matured using poly(I:C) at 5 μg/mL/10^6 DCs (Amersham). Secretion of IL-12p70, TNFα, IL-1β, IL-6, IL-8 and IL-10 was assessed on both immature and mature DCs using the Human Inflammatory Cytokine Cytometric Bead Array (BD Pharmingen).
Activation of T cell clones (10,000 cells/100 μL/well), polyclonal T cell populations (100,000 cells/100 μL/well), and DCs (50,000 cells/100 μL/well) can be determined by ELISA. IFNγ (BioSource), TNFα (BioSource), IL-4 (BioSource), IFNβ (VeriKine; PBL interferon source) and MCP-3 (DuoSet; R&D Systems) contents in supernatants were measured according to the manufacturer's instructions. p50 was measured in cytosolic and nuclear fractions (fractions separated using the nuclear separation kit from Active motif) by ELISA (Active motif).

OX40L = OX40L expression on DCs (staining); assay type: cell-based, human; conditions: DCs exposed for 2 days, stained for OX40L
Experimental: as §1
(§3) A) DCs were exposed to various TLR agonists for 2 days before cells were stained for OX40L. […] B) TLR2-transfected and engineered HEK cells were incubated with MMP-2 (5 mg/ml) or various controls. All conditions were also tested in the presence of a blocking antibody for TLR2. TNFα was used to activate NF-κB in a TLR-independent manner. Twenty hours later, NF-κB activation was measured.
Antibody to OX40L (11C3.1) was from Biolegend. Blocking antibodies to TLR-2 and TLR-6 were from Invivogen. Antibodies to GATA-3, IL-4 (8D4-8), IL-5 (JES1-39D10), IL-13 (JES10-5A2), TNFα (MAb11), IFNγ (25723.11), perforin (δG9), GranzymeB (GB11), CD40 (5C3), CD80 (L307.4), CD83 (HB15e), CD86 (IT2.2), HLA-DR (TU36), fluorescein isothiocyanate-conjugated antibodies to CD45RA (HI100) and CD45RO (UCHL1), and antibody to CD4 (RPA-T4) were purchased from BD Biosciences Pharmingen. Alexa fluor 488-conjugated antibody to IL-17 (eBio64DEC17), phycoerythrine-conjugated antibody to T-bet (4B10).
as §2

human TLR-2 = target: T1, human TLR-2 (Homo sapiens, UniProt O60603); test: HEK-Blue-hTLR2 NF-κB SEAP reporter assay; assay type: cell-based; conditions: MMP-2 5 mg/ml; twenty hours; with/without TLR2 blocking antibody
T1 construct: host or cells: HEK293 (HEK-Blue-hTLR2 cells)
Experimental: as §3
TLR2-transfected and engineered HEK cells were incubated with MMP-2 (5 mg/ml), TLR2 agonists, recombinant PEX and 3 pools of overlapping 20-mers covering MMP-2. OLP1: mix of 22 overlapping peptides covering MMP-2 from amino-acid 1 to 220; OLP2: mix of 22 overlapping peptides covering MMP-2 from amino-acid 210 to 440; OLP3: mix of 22 overlapping peptides covering MMP-2 from amino-acid 450 to 660. Twenty hours later, NF-κB activation was measured. Neither PEX nor the peptides triggered NF-κB signaling.
TLR-2-transfected (stably) HEK-Blue™ Cells represent a very efficient high throughput reagent for screening due to an easy read-out. […] Levels of SEAP can be readily determined with QUANTI-Blue™, a detection medium that turns purple/blue in the presence of alkaline phosphatase. […] Inhibition of NF-κB activation by any agents/molecules can be assessed and confirmed in DCs (which endogenously express TLR2 or are engineered to express exogenous TLR2) in order to corroborate the initial screening results in a native or more natural context. […] TLR-2-expressing cells, such as those described herein, can be incubated with agents/molecules and molecular interactions assessed using methods, such as, e.g., co-immunoprecipitation of MMP-2 and TLR-2 from the cell lysates. […] Additional methods can be used to evaluate if MMP-2 and TLR-2 interact directly, including other affinity-based methods (e.g., affinity chromatography or panning), competitive inhibition assays, and various visualization techniques, such as fluorescence resonance energy transfer (FRET) and others which are known in the art. […]

T1 sequence (O60603 21-784): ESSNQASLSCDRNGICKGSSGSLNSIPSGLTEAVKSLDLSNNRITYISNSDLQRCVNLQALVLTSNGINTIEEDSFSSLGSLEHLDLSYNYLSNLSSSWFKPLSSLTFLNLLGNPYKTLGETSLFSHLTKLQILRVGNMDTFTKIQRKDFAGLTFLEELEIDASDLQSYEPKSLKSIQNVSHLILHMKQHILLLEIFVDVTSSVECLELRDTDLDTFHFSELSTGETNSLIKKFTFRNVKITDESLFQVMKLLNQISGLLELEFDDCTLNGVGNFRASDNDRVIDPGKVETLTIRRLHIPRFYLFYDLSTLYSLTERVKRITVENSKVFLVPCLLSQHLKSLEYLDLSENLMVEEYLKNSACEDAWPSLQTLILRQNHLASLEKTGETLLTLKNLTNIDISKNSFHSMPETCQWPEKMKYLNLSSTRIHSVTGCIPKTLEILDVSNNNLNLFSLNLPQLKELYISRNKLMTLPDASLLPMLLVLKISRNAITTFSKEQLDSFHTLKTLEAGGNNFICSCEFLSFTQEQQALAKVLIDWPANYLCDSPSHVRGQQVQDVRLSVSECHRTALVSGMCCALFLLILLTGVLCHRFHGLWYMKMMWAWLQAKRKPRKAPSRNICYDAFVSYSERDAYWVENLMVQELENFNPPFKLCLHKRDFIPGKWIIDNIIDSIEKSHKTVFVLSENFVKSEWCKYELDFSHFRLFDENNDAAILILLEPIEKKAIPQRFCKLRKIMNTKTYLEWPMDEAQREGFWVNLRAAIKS

| Molecule | p50 translocation in the nucleus (NF-κB pathway) | OX40L expression on DCs (OX40L) | NF-κB activation in TLR2-transfected HEK cells (human TLR-2) |
| --- | --- | --- | --- |
| zymosan [reference compound] | induce p50 translocation in the nucleus after 30 min | induce OX40L on DCs | activate NF-κB in a TLR2-dependent manner |
| PEX: last third of MMP-2, amino acids 445-635 of SEQ ID NO: 1; recombinant (protein, listed as Homo sapiens) YGASPDIDLGTGPTPTLGPVTPEICKQDIVFDGIAQIRGEIFFFKDRFIWRTVTPRDKPMGPLLVATFWPELPEKIDAVYEAPQEEKAVFFAGNEYWIYSASTLERGYPKPLTSLGLPPDVQRVDAAFNWSKNKKTYIFAGDKFWRYNEVKKKMDPGFPKLIADAWNAIPDNLDAVVDLQGGGHSYFFKGA | – | – | did not trigger TLR-2 activation; also recorded: do not trigger TLR2 |
